Measurements: patent US20210214375A1 (LUNDBECK LA JOLLA RESEARCH CENTER, INC., priority 2017, published 2021)

What was measured:
MGLL = target: T1, MGLL (Mus musculus, UniProt O35678); experiment: In vitro competitive activity-based protein profiling, mouse brain proteome; type: biochemical
T1 construct: Brain; from tissue; host or cells: mouse brain proteome
T1 sequence (O35678 1-303): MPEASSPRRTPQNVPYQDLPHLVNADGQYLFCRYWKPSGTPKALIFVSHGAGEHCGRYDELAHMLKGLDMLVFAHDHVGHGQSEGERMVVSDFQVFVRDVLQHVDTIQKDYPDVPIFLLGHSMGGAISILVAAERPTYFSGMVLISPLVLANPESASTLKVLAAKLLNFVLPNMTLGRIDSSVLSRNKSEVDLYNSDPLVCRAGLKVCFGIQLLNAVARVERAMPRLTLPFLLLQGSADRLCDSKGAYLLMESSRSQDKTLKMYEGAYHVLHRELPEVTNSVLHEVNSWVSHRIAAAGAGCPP
Method: [Worded in the source for another species; this species is reported under the same test.] (§1) Proteomes (human prefrontal cortex or cell membrane fractions) (50 μL, 1.0 mg/mL total protein concentration) were preincubated with varying concentrations of inhibitors at 37° C. After 30 min, FP—Rh or HT-01 (1.0 μL, 50 μM in DMSO) was added and the mixture was incubated for another 30 min at room temperature. Reactions were quenched with SDS loading buffer (15 μL-4×) and run on SDS-PAGE.

MAGL = target: T2, MAGL (Mus musculus, UniProt O35678); experiment: Mouse brain proteomes from inhibitor treated mice (oral gavage, brain proteomes analyzed 4 h after administration); type: in vivo, mouse (C57Bl/6J); details: brain proteome 4 h after administration, read-out: % Inh 5 mg/kg MGLL (Mouse)
T2 construct: from tissue; host or cells: brain of wild-type C57Bl/6J mice
T2 sequence (O35678 1-303): T1 sequence (O35678 1-303)
Procedure, shortened: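 Wild-type C57Bl/6J mice dosed orally in polyethylene glycol vehicle; brains removed 4 h post-dose and brain proteomes prepared and analysed for MAGL and serine hydrolase activity by previously established methods.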

ABHD6 = target: T3, ABHD6 (Mus musculus, UniProt Q8R2Y0); experiment: In vitro competitive activity-based protein profiling, mouse brain proteome, ABHD6; type: biochemical; details: mouse
T3 construct: Brain; from tissue; host or cells: mouse brain proteome
T3 sequence (Q8R2Y0 1-336): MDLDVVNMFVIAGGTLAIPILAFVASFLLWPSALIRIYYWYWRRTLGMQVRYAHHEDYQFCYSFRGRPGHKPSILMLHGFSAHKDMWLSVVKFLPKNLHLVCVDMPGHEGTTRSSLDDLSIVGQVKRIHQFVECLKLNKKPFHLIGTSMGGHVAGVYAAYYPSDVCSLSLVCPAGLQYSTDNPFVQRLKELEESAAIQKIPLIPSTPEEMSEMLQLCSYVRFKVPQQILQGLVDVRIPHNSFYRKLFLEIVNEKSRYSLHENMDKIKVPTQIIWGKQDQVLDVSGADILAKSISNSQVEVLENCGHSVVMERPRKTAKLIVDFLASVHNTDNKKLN
Method: [Worded in the source for another target; this target is reported under the same test.] as §1

Row | Structure (SMILES) | IC50 (MGLL) | inhibition at 5 mg/kg (MAGL) | IC50 (ABHD6)
1 | CC(=O)N1CCC2(CCN(c3cc(Cl)ccc3CN3CCN(C(=O)OC(C(F)(F)F)C(F)(F)F)CC3)CC2)C1 [Example 178, 1,1,1,3,3,3-Hexafluoropropan-2-yl 4-(2-(2-acetyl-2,8-diazaspiro[4.5]decan-8-yl)-4-chlorobenzyl) piperazie-1-carboxylate] | < 100 nM | ≥ 75% | > 1000 nM
2 | O=C(OC(C(F)(F)F)C(F)(F)F)N1CCC2(CC1)CN(Cc1c(N3CC4COCC4C3)cccc1C(F)(F)F)C2 (stereo not drawn) [Example 32, 1,1,1,3,3,3-Hexafluoropropan-2-yl 2-(2-(tetrahydro-1H-furo[3,4-c]pyrrol-5(3H)-yl)-6-(trifluoromethyl)benzyl)-2,7-diazaspiro[3.5]nonane-7-carboxylate] | < 100 nM | ≥ 75% | > 1000 nM
3 | CC(=O)N1CCN(c2cccc(Cl)c2CN2CC3(CCN(C(=O)OC(C(F)(F)F)C(F)(F)F)CC3)C2)CC1 [Example 49, 1,1,1,3,3,3-Hexafluoropropan-2-yl 2-(2-(4-acetylpiperazin-1-yl)-6-chlorobenzyl)-2,7-diazaspiro[3.5]nonane-7-carboxylate] | < 100 nM | ≥ 75% | < 100 nM
4 | CN(Cc1ccc(C(F)(F)F)cc1N1CCOCC1)C1(C)CCN(C(=O)OC(C(F)(F)F)C(F)(F)F)CC1 [Example 63, 1,1,1,3,3,3-Hexafluoropropan-2-yl 4-methyl-4-(methyl(2-morpholino-4-(trifluoromethyl)benzyl)amino) piperidine-1-carboxylate] | < 100 nM | ≥ 75% | > 1000 nM
5 | O=C(OC(C(F)(F)F)C(F)(F)F)N1CCC2(CC1)CN(Cc1ccc(Cl)cc1N1CCOCC1)C2 [Example 39, 1,1,1,3,3,3-Hexafluoropropan-2-yl 2-(4-chloro-2-morpholinobenzyl)-2,7-diazaspiro[3.5]nonane-7-carboxylate] | < 100 nM | ≥ 75% | 100 to 1000 nM
6 | CN1CCC2(CCN(c3cc(Cl)ccc3CN3CCN(C(=O)OC(C(F)(F)F)C(F)(F)F)CC3)CC2)C1 [Example 177, 1,1,1,3,3,3-Hexafluoropropan-2-yl 4-(4-chloro-2-(2-methyl-2,8-diazaspiro[4.5]decan-8-yl)benzyl)piperazine-1-carboxylate] | < 100 nM | 25 to 75% | > 1000 nM
7 | CC(=O)N1CCC2(CC1)CCN(c1cc(C(F)(F)F)ccc1CN1CCN(C(=O)OC(C(F)(F)F)C(F)(F)F)CC1)C2 [Example 197, 1,1,1,3,3,3-Hexafluoropropan-2-yl 4-(2-(8-acetyl-2,8-diazaspiro[4.5]decan-2-yl)-4-(trifluoromethyl)benzyl)piperazine-1-carboxylate] | < 100 nM | ≤ 25% | > 1000 nM
8 | CN1CCC2(CCN(c3cc(C(F)(F)F)ccc3CN3CCN(C(=O)OC(C(F)(F)F)C(F)(F)F)CC3)CC2)C1 [Example 182, 1,1,1,3,3,3-Hexafluoropropan-2-yl 4-(2-(2-methyl-2,8-diazaspiro[4.5]decan-8-yl)-4-(trifluoromethyl)benzyl)piperazine-1-carboxylate] | < 100 nM | ≤ 25% | > 1000 nM
9 | O=C(OC(C(F)(F)F)C(F)(F)F)N1CCC2(CC1)CN(Cc1ccc(C(F)(F)F)cc1N1CCCC1)C2 [Example 151, 1,1,1,3,3,3-Hexafluoropropan-2-yl 2-(2-(pyrrolidin-1-yl)-4-(trifluoromethyl)benzyl)-2,7-diazaspiro[3.5]nonane-7-carboxylate] | < 100 nM | ≥ 75% | 100 to 1000 nM
10 | CS(=O)(=O)N1CC2(CCN(c3cc(Cl)ccc3CN3CCN(C(=O)OC(C(F)(F)F)C(F)(F)F)CC3)C2)C1 [Example 175, 1,1,1,3,3,3-Hexafluoropropan-2-yl 4-(4-chloro-2-(2-(methylsulfonyl)-2,6-diazaspiro[3.4]octan-6-yl)benzyl)piperazine-1-carboxylate] | < 100 nM | ≥ 75% | > 1000 nM
11 | O=C(OC(C(F)(F)F)C(F)(F)F)N1CCC2(CC1)CN(Cc1c(Cl)cccc1N1CCCCC1)C2 [Example 45, 1,1,1,3,3,3-Hexafluoropropan-2-yl 2-(2-chloro-6-(piperidin-1-yl)benzyl)-2,7-diazaspiro[3.5]nonane-7-carboxylate] | < 100 nM | ≥ 75% | < 100 nM
12 | O=C(OC(C(F)(F)F)C(F)(F)F)N1CCC2(CC1)CN(Cc1ccc(C(F)(F)F)cc1)C2 [Example 69, 1,1,1,3,3,3-Hexafluoropropan-2-yl 2-(4-(trifluoromethyl)benzyl)-2,7-diazaspiro[3.5]nonane-7-carboxylate] | < 100 nM | ≥ 75% | < 100 nM
13 | O=C(OC(C(F)(F)F)C(F)(F)F)N1CCC2(CC1)CN(Cc1c(Cl)cccc1N1CCOCC1)C2 [Example 46, 1,1,1,3,3,3-Hexafluoropropan-2-yl 2-(2-chloro-6-morpholinobenzyl)-2,7-diazaspiro[3.5]nonane-7-carboxylate] | < 100 nM | ≥ 75% | < 100 nM
14 | O=C(OC(C(F)(F)F)C(F)(F)F)N1CCC2(CCN(Cc3ccc(Cl)cc3N3CCOCC3)CC2)C1 [Example 181, 1,1,1,3,3,3-Hexafluoropropan-2-yl 8-(4-chloro-2-molpholinobenzyl)-2,8-diazaspiro[4.5]decane-2-carboxylate] | < 100 nM | ≥ 75% | > 1000 nM
15 | O=C(OC(C(F)(F)F)C(F)(F)F)N1CCC2(CC1)CN(Cc1c(N3CCN(C4CC4)CC3)cccc1C(F)(F)F)C2 [Example 60, 1,1,1,3,3,3-Hexafluoropropan-2-yl 2-(2-(4-cyclopropylpiperazin-1-yl)-6-(trifluoromethyl)benzyl)-2,7-diazaspiro[3.5]nonane-7-carboxylate] | < 100 nM | ≥ 75% | > 1000 nM
16 | O=C(OC(C(F)(F)F)C(F)(F)F)N1CCC2(CC1)CN(Cc1c(N3CCC(F)CC3)cccc1C(F)(F)F)C2 [Example 51, 1,1,1,3,3,3-Hexafluoropropan-2-yl 2-(2-(4-fluoropiperidin-1-yl)-6-(trifluoromethyl)benzyl)-2,7-diazaspiro[3.5]nonane-7-carboxylate] | < 100 nM | ≥ 75% | > 1000 nM
17 | CN(Cc1ccc(C(F)(F)F)cc1N1CCCC1)C1(C)CCN(C(=O)OC(C(F)(F)F)C(F)(F)F)CC1 [Example 72, 1,1,1,3,3,3-Hexafluoropropan-2-yl 4-methyl-4-(methyl(2-(pyrrolidin-1-yl)-4-(trifluoromethyl)benzyl)amino) piperidine-1-carboxylate] | < 100 nM | ≥ 75% | > 1000 nM
18 | O=C(OC(C(F)(F)F)C(F)(F)F)N1CCC2(CCN(Cc3ccc(C(F)(F)F)cc3N3CCCCC3)CC2)C1 [Example 187, 1,1,1,3,3,3-Hexafluoropropan-2-yl 8-(2-(piperidin-1-yl)-4-(trifluoromethyl)benzyl)-2,8-diazaspiro[4.5]decane-2-carboxylate] | < 100 nM | ≥ 75% | > 1000 nM
19 | CS(=O)(=O)N1CCN(c2cccc(C(F)(F)F)c2CN2CC3(CCN(C(=O)OC(C(F)(F)F)C(F)(F)F)CC3)C2)CC1 [Example 53, 1,1,1,3,3,3-Hexafluoropropan-2-yl 2-(2-(4-(methylsulfonyl)piperazin-1-yl)-6-(trifluoromethyl)benzyl)-2,7-diazaspiro[3.5]nonane-7-carboxylate] | < 100 nM | ≥ 75% | 100 to 1000 nM
20 | CN1CC2(CCN(c3cc(C(F)(F)F)ccc3CN3CCN(C(=O)OC(C(F)(F)F)C(F)(F)F)CC3)C2)C1 [Example 179, 1,1,1,3,3,3-Hexafluoropropan-2-yl 4-(2-(2-methyl-2,6-diazaspiro[3.4]octan-6-yl)-4-(trifluoromethyl)benzyl)piperazine-1-carboxylate] | < 100 nM | ≥ 75% | > 1000 nM
21 | O=C(OC(C(F)(F)F)C(F)(F)F)N1CCC2(CC1)CN(Cc1c(N3CCCCC3)cccc1C(F)(F)F)C2 [Example 41, 1,1,1,3,3,3-Hexafluoropropan-2-yl 2-(2-(piperidin-1-yl)-6-(trifluoromethyl)benzyl)-2,7-diazaspiro[3.5]nonane-7-carboxylate] | < 100 nM | ≥ 75% | > 1000 nM
